From patent US8431565B2 (priority 2007, dated 2013)
pEC50: −log10 of the molar value.

What follows are compounds tested against T1, rat CB2 receptor (rCB2) (Rattus norvegicus, UniProt Q9QZN9).
T1 sequence (Q9QZN9 1-360): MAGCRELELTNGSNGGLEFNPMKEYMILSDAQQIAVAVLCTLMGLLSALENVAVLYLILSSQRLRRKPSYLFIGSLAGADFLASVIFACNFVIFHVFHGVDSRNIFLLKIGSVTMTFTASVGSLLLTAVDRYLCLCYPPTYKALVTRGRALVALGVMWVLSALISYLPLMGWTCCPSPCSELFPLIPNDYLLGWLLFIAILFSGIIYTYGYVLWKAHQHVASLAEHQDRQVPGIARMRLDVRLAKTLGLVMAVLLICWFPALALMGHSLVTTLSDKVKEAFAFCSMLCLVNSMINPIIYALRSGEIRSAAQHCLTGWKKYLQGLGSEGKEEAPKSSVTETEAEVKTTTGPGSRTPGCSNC

SMILES	pEC50
CNC(=O)[C@@H](NC(=O)c1nc(-c2ccccc2)n2c1CN(C(=O)C(C)(C)C)CC2)C(C)(C)C [Compound 190, (S)-N-(3,3-dimethyl-1-(methylamino)-1-oxobutan-2-yl)-3-phenyl-7-pivaloyl-5,6,7,8-tetrahydroimidazo[1,5-a]pyrazine-1-carboxamide]	7.00 to 8.00

The compounds below were run against human CB1 receptor (hCB1) (Homo sapiens, UniProt P21554).
Assay type: cell-based

Sequence of human CB1 receptor (hCB1) (P21554 whole entry): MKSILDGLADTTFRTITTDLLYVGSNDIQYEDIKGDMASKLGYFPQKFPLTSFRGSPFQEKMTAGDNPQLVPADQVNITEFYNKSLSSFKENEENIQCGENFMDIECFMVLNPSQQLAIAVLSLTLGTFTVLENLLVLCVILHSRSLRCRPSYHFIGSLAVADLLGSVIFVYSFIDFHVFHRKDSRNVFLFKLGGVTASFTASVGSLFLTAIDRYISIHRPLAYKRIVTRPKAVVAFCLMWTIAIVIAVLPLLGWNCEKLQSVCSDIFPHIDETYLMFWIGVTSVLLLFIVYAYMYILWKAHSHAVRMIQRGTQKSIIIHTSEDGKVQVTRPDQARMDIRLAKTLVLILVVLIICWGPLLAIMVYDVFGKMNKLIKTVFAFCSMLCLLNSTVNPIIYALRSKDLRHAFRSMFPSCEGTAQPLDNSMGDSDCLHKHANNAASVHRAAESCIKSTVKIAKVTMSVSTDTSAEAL

SMILES	pEC50
CN1CCCn2c(-c3cc(Cl)c(F)cc3F)nc(C(=O)N3CC(F)(F)C3)c2C1 [Compound 823, (3-(5-chloro-2,4-difluorophenyl)-8-methyl-6,7,8,9-tetrahydro-5H-imidazo[1,5-a][1,4]diazepin-1-yl)(3,3-difluoroazetidin-1-yl)methanone]	< 5.00
CNC(=O)[C@@H](NC(=O)c1nc(-c2ccc(C(C)=O)s2)n2c1CN(C)CCC2)C(C)(C)C [Compound 704, (S)-3-(5-acetylthiophen-2-yl)-N-(3,3-dimethyl-1-(methylamino)-1-oxobutan-2-yl)-8-methyl-6,7,8,9-tetrahydro-5H-imidazo[1,5-a][1,4]diazepine-1-carboxamide]	< 5.00
CN1CCCn2c(-c3cc(F)c(F)cc3F)nc(C(=O)N3CCC4(CCN(C)C4=O)CC3)c2C1 [Compound 788, 2-methyl-8-(8-methyl-3-(2,4,5-trifluorophenyl)-6,7,8,9-tetrahydro-5H-imidazo[1,5-a][1,4]diazepine-1-carbonyl)-2,8-diazaspiro[4.5]decan-1-one]	< 5.00
CNC(=O)[C@@H](NC(=O)c1nc(-c2ccnc(-c3ccnc(Cl)c3)c2)n2c1CN(C)CCC2)C(C)(C)C [Compound 625, (S)-3-(2′-chloro-2,4′-bipyridin-4-yl)-N-(3,3-dimethyl-1-(methylamino)-1-oxobutan-2-yl)-8-methyl-6,7,8,9-tetrahydro-5H-imidazo[1,5-a][1,4]diazepine-1-carboxamide]	< 5.00
CNC(=O)[C@@H](NC(=O)c1nc(-c2cnn(CC(C)C)c2)n2c1CN(C)CCC2)C(C)(C)C [Compound 710, (S)-N-(3,3-dimethyl-1-(methylamino)-1-oxobutan-2-yl)-3-(1-isobutyl-1H-pyrazol-4-yl)-8-methyl-6,7,8,9-tetrahydro-5H-imidazo[1,5-a][1,4]diazepine-1-carboxamide]	< 5.00
CNC(=O)[C@@H](NC(=O)c1nc(-c2ccccc2C)n2c1CN(C)CCC2)C(C)(C)C [Compound 647, (S)-N-(3,3-dimethyl-1-(methylamino)-1-oxobutan-2-yl)-8-methyl-3-o-tolyl-6,7,8,9-tetrahydro-5H-imidazo[1,5-a][1,4]diazepine-1-carboxamide]	< 5.00
CN1CCN(CC(C)(C)NC(=O)c2nc(-c3cc(Cl)c(F)cc3F)n3c2CN(C)CCC3)CC1 [Compound 879, 3-(5-chloro-2,4-difluorophenyl)-8-methyl-N-(2-methyl-1-(4-methylpiperazin-1-yl)propan-2-yl)-6,7,8,9-tetrahydro-5H-imidazo[1,5-a][1,4]diazepine-1-carboxamide]	< 5.00
CNC(=O)[C@@H](NC(=O)c1nc(-c2cnn(-c3ccccc3)c2C)n2c1CN(C)CCC2)C(C)(C)C [Compound 709, (S)-N-(3,3-dimethyl-1-(methylamino)-1-oxobutan-2-yl)-8-methyl-3-(5-methyl-1-phenyl-1H-pyrazol-4-yl)-6,7,8,9-tetrahydro-5H-imidazo[1,5-a][1,4]diazepine-1-carboxamide]	< 5.00
CNC(=O)C1(NC(=O)c2nc(-c3cc(F)c(F)cc3F)n3c2CN(C)CCC3)CCCC1 [Compound 719, 8-methyl-N-(1-(methylcarbamoyl)cyclopentyl)-3-(2,4,5-trifluorophenyl)-6,7,8,9-tetrahydro-5H-imidazo[1,5-a][1,4]diazepine-1-carboxamide]	< 5.00
CNC(=O)[C@@H](NC(=O)c1nc(-c2cccnc2OC(C)C)n2c1CN(C)CCC2)C(C)(C)C [Compound 641, (S)-N-(3,3-dimethyl-1-(methylamino)-1-oxobutan-2-yl)-3-(2-isopropoxypyridin-3-yl)-8-methyl-6,7,8,9-tetrahydro-5H-imidazo[1,5-a][1,4]diazepine-1-carboxamide]	< 5.00
CC1CN(C(=O)c2nc(-c3cc(F)c(F)cc3F)n3c2CN(C)CCC3)CC(C)O1 (centres unmarked) [Compound 854, (2,6-dimethylmorpholino)(8-methyl-3-(2,4,5-trifluorophenyl)-6,7,8,9-tetrahydro-5H-imidazo[1,5-a][1,4]diazepin-1-yl)methanone]	< 5.00
CN1CCCn2c(-c3cc(Cl)ccc3F)nc(C(=O)N[C@H](CNS(C)(=O)=O)C(C)(C)C)c2C1 [Compound 771, (S)-3-(5-chloro-2-fluorophenyl)-N-(3,3-dimethyl-1-(methylsulfonamido)butan-2-yl)-8-methyl-6,7,8,9-tetrahydro-5H-imidazo[1,5-a][1,4]diazepine-1-carboxamide]	< 5.00
CC(=O)NC[C@@H](NC(=O)c1nc(-c2cc(Cl)ccc2F)n2c1CN(C)CCC2)C(C)(C)C [Compound 770, (S)-N-(1-acetamido-3,3-dimethylbutan-2-yl)-3-(5-chloro-2-fluorophenyl)-8-methyl-6,7,8,9-tetrahydro-5H-imidazo[1,5-a][1,4]diazepine-1-carboxamide]	< 5.00
CNC(=O)[C@@H](NC(=O)c1nc(-c2ccccc2N)n2c1CN(C)CCC2)C(C)(C)C [Compound 646, (S)-3-(2-aminophenyl)-N-(3,3-dimethyl-1-(methylamino)-1-oxobutan-2-yl)-8-methyl-6,7,8,9-tetrahydro-5H-imidazo[1,5-a][1,4]diazepine-1-carboxamide]	< 5.00
CN1CCCn2c(-c3cc(F)c(F)cc3F)nc(C(=O)NC(C)(C)CO)c2C1 [Compound 765, N-(1-hydroxy-2-methylpropan-2-yl)-8-methyl-3-(2,4,5-trifluorophenyl)-6,7,8,9-tetrahydro-5H-imidazo[1,5-a][1,4]diazepine-1-carboxamide]	< 5.00
CN1CCCn2c(-c3cc(F)c(F)cc3F)nc(C(=O)NCC3CCOCC3)c2C1 [Compound 764, 8-methyl-N-((tetrahydro-2H-pyran-4-yl)methyl)-3-(2,4,5-trifluorophenyl)-6,7,8,9-tetrahydro-5H-imidazo[1,5-a][1,4]diazepine-1-carboxamide]	< 5.00
CNC(=O)[C@@H](NC(=O)c1nc(-c2cc(F)c(F)cc2OC(C)C)n2c1CN(C)CCC2)C(C)(C)C [Compound 651, (S)-3-(4,5-difluoro-2-isopropoxyphenyl)-N-(3,3-dimethyl-1-(methylamino)-1-oxobutan-2-yl)-8-methyl-6,7,8,9-tetrahydro-5H-imidazo[1,5-a][1,4]diazepine-1-carboxamide]	< 5.00
CNC(=O)[C@@H](NC(=O)c1nc(-c2cc(F)c(F)cc2F)n2c1CN(C(C)=O)CCC2)C(C)(C)C [Compound 818, (S)-8-acetyl-N-(3,3-dimethyl-1-(methylamino)-1-oxobutan-2-yl)-3-(2,4,5-trifluorophenyl)-6,7,8,9-tetrahydro-5H-imidazo[1,4]diazepine-1-carboxamide]	< 5.00
CNC(=O)[C@@H](NC(=O)c1nc(C2CCN(S(=O)(=O)c3ccccc3)CC2)n2c1CN(C)CCC2)C(C)(C)C [Compound 727, (S)-N-(3,3-dimethyl-1-(methylamino)-1-oxobutan-2-yl)-8-methyl-3-(1-(phenylsulfonyl)piperidin-4-yl)-6,7,8,9-tetrahydro-5H-imidazo[1,5-a][1,4]diazepine-1-carboxamide]	< 5.00
CN1CCCn2c(-c3cc(F)c(F)cc3F)nc(C(=O)N3CCCCC3CN3CCOCC3)c2C1 (centres unmarked) [Compound 789, (8-methyl-3-(2,4,5-trifluorophenyl)-6,7,8,9-tetrahydro-5H-imidazo[1,5-a][1,4]diazepin-1-yl)(2-(morpholinomethyl)piperidin-1-yl)methanone]	< 5.00
CN1CCCn2c(-c3cc(Cl)c(F)cc3F)nc(C(=O)N3CC[C@H](O)C3)c2C1 [Compound 910, (S)-(3-(5-chloro-2,4-difluorophenyl)-8-methyl-6,7,8,9-tetrahydro-5H-imidazo[1,5-a][1,4]diazepin-1-yl)(3-hydroxypyrrolidin-1-yl)methanone]	< 5.00
CC(C)(C)[C@H](NC(=O)c1nc(-c2ccccc2)n2c1CNCC2)C(=O)N1CCOCC1 [Compound 733, (S)-N-(3,3-dimethyl-1-morpholino-1-oxobutan-2-yl)-3-phenyl-5,6,7,8-tetrahydroimidazo[1,5-a]pyrazine-1-carboxamide]	< 5.00
CNC(=O)[C@@H](NC(=O)c1nc(-c2ccc(C(F)(F)F)cc2C)n2c1CN(C)CCC2)C(C)(C)C [Compound 632, (S)-N-(3,3-dimethyl-1-(methylamino)-1-oxobutan-2-yl)-8-methyl-3-(2-methyl-4-(trifluoromethyl)phenyl)-6,7,8,9-tetrahydro-5H-imidazo[1,5-a][1,4]diazepine-1-carboxamide]	< 5.00
CNC(=O)[C@@H](NC(=O)c1nc(-c2ccc(=O)n(C)c2)n2c1CN(C)CCC2)C(C)(C)C [Compound 708, (S)-N-(3,3-dimethyl-1-(methylamino)-1-oxobutan-2-yl)-8-methyl-3-(1-methyl-6-oxo-1,6-dihydropyridin-3-yl)-6,7,8,9-tetrahydro-5H-imidazo[1,5-a][1,4]diazepine-1-carboxamide]	< 5.00
COC(=O)C1CN(C(=O)c2nc(-c3cc(Cl)c(F)cc3F)n3c2CN(C)CCC3)CCC1=O (centres unmarked) [Compound 826, methyl 1-(3-(5-chloro-2,4-difluorophenyl)-8-methyl-6,7,8,9-tetrabydro-5H-imidazo[1,5-a][1,4]diazepine-1-carbonyl)-4-oxopiperidine-3-carboxylate]	< 5.00
